Calls of active or inactive are those of the source. The calls are words filed in the database; no cut-off is given here.
Tests used:
[1] = Stability of the compound in blank intestinal juice assessed as parent compound remaining at 1 mg/ml measured after 8 hrs by UPLC-MS/MS analysis; format: ADME; details: read-out: Stability
[2] = tested on: PC-12; test: Neuroprotective activity against Amyloid beta(25 to 35)-induced cell injury in rat PC12 cells assessed as cell viability at 5 uM pretreated for 2 hrs followed by incubation with Abeta(25 to 35) for 24 hrs by CCK-8 assay (reference value: 41 to 58.6%); format: functional; details: time 26 hrs, read-out: Activity
[3] = Metal chelating activity assessed as compound-Cu2+ complex formation by measuring small fiber aggregates incubated for 24 hrs by transmission electron microscopy
[4] = target: Acetylcholinesterase (Electrophorus electricus, UniProt O42275); test: Inhibition of electric eel AChE using acetylthiocholine chloride as substrate by Ellman's method
[5] = tested on: BV-2; test: Anti-inflammatory activity against LPS-stimulated mouse BV-2 cells assessed as inhibition of LPS-induced NO production incubated for 24 hrs in presence of LPS; format: functional, cell-based; details: dose 1-9 µM
[6] = Metal chelating activity assessed as compound-Zn2+ complex formation at 37.5 uM incubated for 30 mins in presence of ZnCl2 by UV-Vis spectrometry
[7] = target: Cholinesterase (Equus caballus) (UniProt P81908); test: Inhibition of equine serum BuChE using butyrylthiocholine chloride as substrate at 25 uM by Ellman's method; format: cell-free
[8] = Metal chelating activity assessed as compound-Cu2+ complex formation by measuring maximum absorption wavelength shift from 316 to 446 nm at 37.5 uM incubated for 30 mins in presence of CuCl2 by UV-Vis spectrometry
[9] = Permeability of the compound at 100 ug/ml incubated for 18 hrs by PAMPA assay; format: ADME; details: dose 100 µg/ml, read-out: permeability
[10] = Metal chelating activity assessed as compound-Cu2+ complex formation by measuring inhibition of Cu2+-induced amyloid beta (1 to 42) aggregation at 25 uM by thioflavin T-based fluorescence analysis
[11] = tested on: BV-2; test: Anti-inflammatory activity against LPS-stimulated mouse BV-2 cells assessed as inhibition of LPS-induced IL-6 production incubated for 24 hrs in presence of LPS; format: functional, cell-based; details: dose 1-9 µM
[12] = target: Amyloid-beta precursor protein (Homo sapiens) (UniProt P05067); test: Inhibition of self-induced Amyloid beta (1 to 42) (unknown origin) aggregation at 25 uM incubated for 24 hrs by thioflavin T-based fluorescence analysis
[13] = tested on: PC-12; test: Neuroprotective activity against Amyloid beta(25 to 35)-induced cell injury in rat PC12 cells assessed as cell viability at 10 uM pretreated for 2 hrs followed by incubation with Abeta(25 to 35) for 24 hrs by CCK-8 assay (reference value: 41 to 58.6%); format: functional; details: time 26 hrs, read-out: Activity
[14] = target: T1, Amine oxidase [flavin-containing] A (Homo sapiens, UniProt P21397); test: Inhibition of human recombinant MAO-A expressed in baculovirus-infected BTI cells using kynuramine as substrate incubated for 30 mins by fluorescence based analysis
T1 sequence (P21397 whole entry): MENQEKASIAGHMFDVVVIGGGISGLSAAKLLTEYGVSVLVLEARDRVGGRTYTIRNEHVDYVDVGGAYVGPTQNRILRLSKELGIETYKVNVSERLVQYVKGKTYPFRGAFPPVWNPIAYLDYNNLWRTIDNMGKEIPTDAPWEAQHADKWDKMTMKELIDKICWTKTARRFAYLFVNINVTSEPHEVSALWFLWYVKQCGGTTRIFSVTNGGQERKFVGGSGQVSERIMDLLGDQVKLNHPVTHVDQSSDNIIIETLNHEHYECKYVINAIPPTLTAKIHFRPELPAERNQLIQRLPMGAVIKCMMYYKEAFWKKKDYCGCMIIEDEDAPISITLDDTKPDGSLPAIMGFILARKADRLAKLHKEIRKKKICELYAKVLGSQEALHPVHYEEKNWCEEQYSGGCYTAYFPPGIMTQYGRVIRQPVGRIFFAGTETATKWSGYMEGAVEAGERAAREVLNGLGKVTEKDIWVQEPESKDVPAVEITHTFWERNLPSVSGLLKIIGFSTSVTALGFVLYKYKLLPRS

[15] = Stability of the compound in artificial intestinal juice assessed as parent compound remaining at 1 mg/ml measured after 8 hrs by UPLC-MS/MS analysis; format: ADME; details: read-out: Stability
[16] = tested on: PC-12; test: Neuroprotective activity against Amyloid beta(25 to 35)-induced cell injury in rat PC12 cells assessed as cell viability at 20 uM pretreated for 2 hrs followed by incubation with Abeta(25 to 35) for 24 hrs by CCK-8 assay (reference value: 41 to 58.6%); format: functional; details: time 26 hrs, read-out: Activity
[17] = species on record: Homo sapiens; test: Selectivity index, ratio of IC50 for inhibition of human recombinant MAO-A expressed in baculovirus-infected BTI cells to IC50 for inhibition of human recombinant MAO-B expressed in baculovirus-infected BTI cells
[18] = Stability of the compound in blank gastric juice assessed as parent compound remaining at 1 mg/ml measured after 8 hrs by UPLC-MS/MS analysis; format: ADME; details: read-out: Stability
[19] = Stability of the compound in artificial gastric juice assessed as parent compound remaining at 1 mg/ml measured after 8 hrs by UPLC-MS/MS analysis; format: ADME; details: read-out: Stability
[20] = Stability of the compound in rat liver microsomes assessed as parent compound remaining at 10 ug/ml measured after 60 mins by UPLC-MS/MS analysis; format: ADME, Microsome; details: at 10 µg/mL, read-out: Stability
[21] = (§1) Cytotoxicity against mouse BV-2 cells assessed as cell viability at 30 uM by CCK8 assay; format: toxicity, cell-based; details: BV-2 cells, read-out: Activity
[22] = tested on: BV-2; test: Cytotoxicity against mouse BV-2 cells assessed as reduction in cell viability at 10 uM by CCK8 assay; format: toxicity, cell-based; details: bv-2, 10 µM
[23] = Stability of the compound in rat plasma assessed as parent compound remaining at 10 ug/ml measured after 3 hrs by UPLC-MS/MS analysis; format: ADME, cell-free; details: at 10 µg/mL, read-out: Stability
[24] = Metal chelating activity assessed as compound-Cu2+ complex formation at stoichiometric ratio of 1:1 at 37.5 uM in presence of CuCl2 by UV-Vis spectrometry
[25] = Metal chelating activity assessed as compound-Al3+ complex formation by measuring maximum absorption wavelength shift from 316 to 434 nm at 37.5 uM incubated for 30 mins in presence of AlCl3 by UV-Vis spectrometry
[26] = tested on: BV-2; test: Anti-inflammatory activity against LPS-stimulated mouse BV-2 cells assessed as inhibition of LPS-induced IL-1 beta production incubated for 24 hrs in presence of LPS; format: functional, cell-based; details: dose 1-9 µM
[27] = target: T2, Amine oxidase [flavin-containing] B (Homo sapiens, UniProt P27338); test: Inhibition of human recombinant MAO-B expressed in baculovirus-infected BTI cells using kynuramine as substrate incubated for 30 mins by fluorescence based analysis
T2 sequence (P27338 whole entry): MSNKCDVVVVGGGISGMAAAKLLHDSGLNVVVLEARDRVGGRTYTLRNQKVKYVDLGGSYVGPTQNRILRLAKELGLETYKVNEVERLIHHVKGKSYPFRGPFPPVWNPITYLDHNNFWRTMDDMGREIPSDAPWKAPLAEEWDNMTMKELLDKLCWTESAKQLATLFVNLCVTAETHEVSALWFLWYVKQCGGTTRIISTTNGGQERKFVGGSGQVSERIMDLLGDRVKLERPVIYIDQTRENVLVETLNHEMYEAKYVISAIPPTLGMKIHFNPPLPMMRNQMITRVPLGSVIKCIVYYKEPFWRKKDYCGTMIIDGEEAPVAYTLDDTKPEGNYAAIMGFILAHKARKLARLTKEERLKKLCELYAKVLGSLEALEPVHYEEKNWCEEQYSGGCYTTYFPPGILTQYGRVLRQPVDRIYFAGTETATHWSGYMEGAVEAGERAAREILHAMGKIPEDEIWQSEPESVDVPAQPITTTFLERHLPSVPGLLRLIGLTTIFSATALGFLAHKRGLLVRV

[28] = tested on: PC-12; test: Cytotoxicity against rat PC-12 cells assessed as cell viability at 40 uM by CCK-8 assay; format: toxicity, cell-based; details: pc-12, 40 µM
[29] = Metal chelating activity assessed as compound-Fe2+ complex formation at 37.5 uM incubated for 30 mins in presence of FeSO4 by UV-Vis spectrometry
[30] = species on record: Danio rerio; test: Antialzheimer activity against AlCl3-induced Alzheimer's disease zebra fish model assessed as total distance moved at 8 uM treated for 24 hrs and measured after 24 hrs under light environment (reference value: 230 cm); format: functional; details: time 48 hrs
[31] = target: Cholinesterase (Equus caballus) (UniProt P81908); test: Reversible inhibition of equine serum BuChE assessed as enzyme activity using butyrylthiocholine chloride as substrate measured after dilution to 0.1XIC50 for 240 mins by Ellman's method; format: cell-free; design: scale not given: the % may be the effect or the level left
[32] = species on record: Danio rerio; test: Neuroprotective activity against AlCl3-induced Alzheimer's disease zebra fish model assessed as inhibition of AlCl3-induced AChE activity at 8 uM treated for 24 hrs and measured after 24 hrs; format: functional, organism-based; details: time 48.0 hrs
[33] = species on record: Danio rerio; test: Neuroprotective activity against AlCl3-induced Alzheimer's disease zebra fish model assessed as increase in ACh content at 8 uM treated for 24 hrs and measured after 24 hrs; format: functional, organism-based; details: time 48.0 hrs
[34] = species on record: Danio rerio; test: Antialzheimer activity against AlCl3-induced Alzheimer's disease zebra fish model assessed as total distance moved at 8 uM treated for 24 hrs and measured after 24 hrs under dark environment (reference value: 312 cm); format: functional; details: time 48 hrs
[35] = species on record: Danio rerio; test: Antialzheimer activity against AlCl3-induced Alzheimer's disease zebra fish model assessed as total distance moved at 8 uM treated for 24 hrs and measured after 24 hrs under alternating light dark stimuli conditions (reference value: 543 cm); format: functional; details: time 48 hrs
[36] = tested on: BV-2; test: Anti-inflammatory activity against LPS-stimulated mouse BV-2 cells assessed as inhibition of LPS-induced IL-1 beta production by measuring IL-beta level at 9 uM incubated for 24 hrs in presence of LPS (reference value: 221.3 pg/ml); format: functional
[37] = tested on: BV-2; test: Anti-inflammatory activity against LPS-stimulated mouse BV-2 cells assessed as inhibition of LPS-induced IL-6 production by measuring IL-6 level at 1 uM incubated for 24 hrs in presence of LPS (reference value: 1503.2 pg/ml); format: functional
[38] = tested on: BV-2; test: Anti-inflammatory activity against LPS-stimulated mouse BV-2 cells assessed as inhibition of LPS-induced IL-6 production by measuring IL-6 level at 3 uM incubated for 24 hrs in presence of LPS (reference value: 1503.2 pg/ml); format: functional
[39] = tested on: BV-2; test: Anti-inflammatory activity against LPS-stimulated mouse BV-2 cells assessed as inhibition of LPS-induced IL-6 production by measuring IL-6 level at 9 uM incubated for 24 hrs in presence of LPS (reference value: 1503.2 pg/ml); format: functional
[40] = tested on: BV-2; test: Anti-inflammatory activity against LPS-stimulated mouse BV-2 cells assessed as inhibition of LPS-induced IL-1 beta production by measuring IL-beta level at 1 uM incubated for 24 hrs in presence of LPS (reference value: 221.3 pg/ml); format: functional
[41] = tested on: BV-2; test: as §1; format: toxicity, cell-based; details: bv-2, 30 µM
[42] = tested on: BV-2; test: Anti-inflammatory activity against LPS-stimulated mouse BV-2 cells assessed as inhibition of LPS-induced IL-1 beta production by measuring IL-beta level at 3 uM incubated for 24 hrs in presence of LPS (reference value: 221.3 pg/ml); format: functional

Chain of Cholinesterase (Equus caballus) (P81908 whole entry): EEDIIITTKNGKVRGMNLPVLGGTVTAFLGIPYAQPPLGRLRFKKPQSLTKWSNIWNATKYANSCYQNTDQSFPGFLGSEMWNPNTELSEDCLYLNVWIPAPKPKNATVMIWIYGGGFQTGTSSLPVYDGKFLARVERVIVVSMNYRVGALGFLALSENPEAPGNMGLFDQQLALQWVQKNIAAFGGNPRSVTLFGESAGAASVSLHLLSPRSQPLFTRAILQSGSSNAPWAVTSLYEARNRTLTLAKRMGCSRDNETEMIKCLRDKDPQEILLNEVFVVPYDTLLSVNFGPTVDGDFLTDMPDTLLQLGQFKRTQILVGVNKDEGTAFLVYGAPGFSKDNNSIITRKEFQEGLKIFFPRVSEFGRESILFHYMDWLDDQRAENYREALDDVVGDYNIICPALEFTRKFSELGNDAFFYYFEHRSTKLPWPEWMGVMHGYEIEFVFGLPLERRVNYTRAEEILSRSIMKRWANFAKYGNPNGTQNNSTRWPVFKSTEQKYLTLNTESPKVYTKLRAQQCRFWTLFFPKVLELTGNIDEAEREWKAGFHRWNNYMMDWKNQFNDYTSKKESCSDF
Chain of Acetylcholinesterase (O42275 whole entry): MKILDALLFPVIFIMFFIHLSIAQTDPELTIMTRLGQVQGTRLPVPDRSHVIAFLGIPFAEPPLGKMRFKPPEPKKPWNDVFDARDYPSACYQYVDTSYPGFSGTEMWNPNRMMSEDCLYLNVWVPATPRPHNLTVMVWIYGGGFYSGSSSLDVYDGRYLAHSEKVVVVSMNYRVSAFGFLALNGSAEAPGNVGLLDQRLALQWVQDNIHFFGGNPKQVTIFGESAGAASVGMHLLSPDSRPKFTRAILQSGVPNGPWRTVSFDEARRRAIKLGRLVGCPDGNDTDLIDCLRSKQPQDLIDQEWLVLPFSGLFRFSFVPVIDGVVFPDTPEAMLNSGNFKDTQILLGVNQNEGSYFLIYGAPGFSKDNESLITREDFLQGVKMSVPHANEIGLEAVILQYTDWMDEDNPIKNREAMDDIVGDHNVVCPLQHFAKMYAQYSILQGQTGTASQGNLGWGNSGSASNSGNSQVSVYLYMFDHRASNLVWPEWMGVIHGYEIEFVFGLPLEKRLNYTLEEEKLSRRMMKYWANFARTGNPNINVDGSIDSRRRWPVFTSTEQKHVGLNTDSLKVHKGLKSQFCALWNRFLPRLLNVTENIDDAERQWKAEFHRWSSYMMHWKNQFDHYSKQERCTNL
Chain of Amyloid-beta precursor protein (Homo sapiens) (P05067 whole entry): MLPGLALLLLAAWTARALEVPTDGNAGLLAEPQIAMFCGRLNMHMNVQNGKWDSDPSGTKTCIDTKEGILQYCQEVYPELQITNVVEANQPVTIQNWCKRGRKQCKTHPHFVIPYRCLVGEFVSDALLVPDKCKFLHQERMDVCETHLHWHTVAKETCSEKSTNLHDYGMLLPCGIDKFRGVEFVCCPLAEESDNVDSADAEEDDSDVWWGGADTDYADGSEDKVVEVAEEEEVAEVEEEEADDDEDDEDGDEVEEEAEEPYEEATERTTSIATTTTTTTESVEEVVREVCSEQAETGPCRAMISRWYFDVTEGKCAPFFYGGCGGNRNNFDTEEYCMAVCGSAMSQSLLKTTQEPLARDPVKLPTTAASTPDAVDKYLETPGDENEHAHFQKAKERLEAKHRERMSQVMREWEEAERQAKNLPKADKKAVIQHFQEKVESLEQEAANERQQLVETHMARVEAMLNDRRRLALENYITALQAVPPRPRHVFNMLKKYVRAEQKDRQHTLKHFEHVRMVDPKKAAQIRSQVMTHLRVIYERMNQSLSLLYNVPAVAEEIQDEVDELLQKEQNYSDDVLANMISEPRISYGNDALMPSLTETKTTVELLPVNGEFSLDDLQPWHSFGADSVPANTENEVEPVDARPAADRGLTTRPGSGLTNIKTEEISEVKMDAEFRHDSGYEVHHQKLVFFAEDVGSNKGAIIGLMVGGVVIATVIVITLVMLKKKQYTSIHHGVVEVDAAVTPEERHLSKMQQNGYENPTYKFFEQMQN

Compound: O=C(/C=C/c1ccc(F)cc1)c1ccccc1O
- remaining at 8 h, 1 mg/ml [1]: 96%
- viability at 5 µM [2]: 80.6%
- Activity [3]: Active
- IC50 [4]: 25.7 µM
- Activity [5]: Dose-Dependent Effect
- Activity [6]: inactive
- inhibition [7]: 10.6%
- Activity [8]: Active
- Papp at 18 h, 100 ug/ml [9]: 11.5 ×10⁻⁶ cm/s
- inhibition [10]: 86.5%
- Activity [11]: Dose-Dependent Effect
- inhibition [12]: 76.9%
- viability at 10 µM [13]: 89.9%
- IC50 [14]: 38.3 µM
- remaining at 8 h, 1 mg/ml [15]: 96.5%
- viability at 20 µM [16]: 99.1%
- Ratio IC50 [17]: 57.2
- remaining at 8 h, 1 mg/ml [18]: 97%
- remaining at 8 h, 1 mg/ml [19]: 99%
- remaining at 1 h, 10 ug/ml [20]: 97.2%
- viability at 30 µM [21]: 80.1%
- Activity [22]: Non-Toxic
- remaining at 3 h, 10 ug/ml [23]: 101%
- Activity [24]: Active
- Activity [25]: Active
- Activity [26]: Dose-Dependent Effect
- IC50 [27]: 0.67 µM
- Activity [28]: Non-Toxic
- Activity [29]: inactive

Compound: COc1cc2c(cc1OC)C(=O)C(CC1CCN(Cc3ccccc3)CC1)C2 (configuration not stated) [DONEPEZIL]
- Activity [30]: 334 cm
- Activity [31]: 118%
- Activity [32]: Active
- Activity [33]: Active
- Activity [34]: 325 cm
- Activity [35]: 671 cm

Compound: CC(C(=O)O)c1ccc(-c2ccccc2)c(F)c1 (configuration not stated) [FLURBIPROFEN]
- Activity [36]: 92.9 pg/mL
- Activity [37]: 1280.5 pg/mL
- Activity [38]: 1096.7 pg/mL
- Activity [39]: 808.6 pg/mL
- Activity [40]: 185.6 pg/mL
- Activity [41]: Non-Toxic
- Activity [42]: 149.8 pg/mL
